Reference: US11691992B2 (Anacor Pharmaceuticals, Inc., priority 2017, dated 2023)

How the values were obtained:
[1] = tested on: TdTomato-modified T. cruzi (CL strain) in Vero cells; test: In vitro IC50 measurement of T. cruzi amastigote killing using TdTomato-modified T. cruzi (CL strain); format: cell-based; conditions: Trypanosoma cruzi, 72 h, fluorescence, read-out: IC50: I Org. amastigote Growth T. cruzi CL TdTomato, 3 d
Summary of the method: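 Vero cells were infected with tdTomato-expressing CL-strain parasites and dosed at 5 uM–5 nM. Fluorescence (ex 544/em 612 nm) was read at day 0 and again after 72 h at 37 °C, with day 0 values subtracted. IC50 and IC90 came from nonlinear regression.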

[2] = tested on: luciferase-expressing L. major parasites developing intracellularly inside RAW 264.7 macrophages; test: Leishmania major intracellular amastigote assay in RAW 264.7 macrophages (luciferase); format: cell-based; conditions: RAW264.7, 96 hours, read-out: IC50: I Org. intracellular amastigote Growth L. major, 4 d
Summary of the method: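 RAW 264.7 macrophages infected overnight with luciferase-expressing L. major promastigotes, washed of extracellular parasites, then exposed to two-fold compound dilutions (final 0.5-10,000 ng/ml) for 96 h at 37° C, 5% CO2. Luciferin luminescence after 30 min; IC50 by sigmoidal variable-slope regression.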

Cc1c(C(=O)Nc2ccc3c(c2)B(O)OC3C)nnn1-c1ccccn1 (stereo not drawn) [Example 24, N-(1-hydroxy-3-methyl-1,3-dihydrobenzo[c][1,2]oxaborol-6-yl)-5-methyl-1-(pyridin-2-yl)-1H-1,2,3-triazole-4-carboxamide]
IC50 [1]: < 600 nM
IC50 [2]: ≤ 1000 nM

CC1OB(O)c2cc(NC(=O)c3cn(-c4cccnc4)nn3)ccc21 (stereo not drawn) [Example 12, N-(1-hydroxy-3-methyl-1,3-dihydrobenzo[c][1,2]oxaborol-6-yl)-1-(pyridin-3-yl)-1H-1,2,3-triazole-4-carboxamide]
IC50 [1]: 600 to 1000 nM
IC50 [2]: 1100 to 9900 nM

COc1ccc(-n2cc(C(=O)Nc3ccc4c(c3)B(O)OC4C)nn2)cc1 (stereo not drawn) [Example 22, N-(1-hydroxy-3-methyl-1,3-dihydrobenzo[c][1,2]oxaborol-6-yl)-1-(4-methoxyphenyl)-1H-1,2,3-triazole-4-carboxamide]
IC50 [1]: < 600 nM
IC50 [2]: ≤ 1000 nM

CC1OB(O)c2cc(NC(=O)c3cn(-c4ccccn4)nn3)ccc21 (stereo not drawn) [Example 23, N-(1-hydroxy-3-methyl-1,3-dihydrobenzo[c][1,2]oxaborol-6-yl)-1-(pyridin-2-yl)-1H-1,2,3-triazole-4-carboxamide]
IC50 [1]: < 600 nM
IC50 [2]: ≤ 1000 nM

O=C(Nc1ccc2c(c1)B(O)OC21CCC1)c1cn(-c2ccccn2)nn1 [Example 26, N-(1-hydroxy-1H-spiro[benzo[c][1,2]oxaborole-3,1′-cyclobutan]-6-yl)-1-(pyridin-2-yl)-1H-1,2,3-triazole-4-carboxamide]
IC50 [1]: 1100 to 10000 nM
IC50 [2]: 1100 to 9900 nM

Cc1ccc(-n2cc(C(=O)Nc3ccc4c(c3)B(O)OC4C)nn2)cc1 (stereo not drawn) [Example 18, N-(1-hydroxy-3-methyl-1,3-dihydrobenzo[c][1,2]oxaborol-6-yl)-1-(p-tolyl)-1H-1,2,3-triazole-4-carboxamide]
IC50 [1]: < 600 nM
IC50 [2]: ≤ 1000 nM

O=C(Nc1ccc2c(c1)B(O)OC21CCC1)c1cn(-c2cccnc2)nn1 [Example 8, N-(1-hydroxy-1H-spiro[benzo[c][1,2]oxaborole-3,1′-cyclobutan]-6-yl)-1-(pyridin-3-yl)-1H-1,2,3-triazole-4-carboxamide]
IC50 [1]: 1100 to 10000 nM
IC50 [2]: 10000 to 50000 nM

O=C(Nc1ccc2c(c1)B(O)OC2)c1nnn(-c2ccccc2)c1C(F)(F)F [Example 68, N-(1-hydroxy-1,3-dihydrobenzo[c][1,2]oxaborol-6-yl)-1-phenyl-5-(trifluoromethyl)-1H-1,2,3-triazole-4-carboxamide]
IC50 [2]: ≤ 1000 nM

COc1ccc(-n2cc(C(=O)Nc3ccc4c(c3)B(O)OC43CCC3)nn2)cc1 [Example 25, N-(1-hydroxy-1H-spiro[benzo[c][1,2]oxaborole-3,1′-cyclobutan]-6-yl)-1-(4-methoxyphenyl)-1H-1,2,3-triazole-4-carboxamide]
IC50 [1]: 600 to 1000 nM
IC50 [2]: 10000 to 50000 nM

Cc1c(C(=O)Nc2ccc3c(c2)B(O)OC3C)nnn1-c1ccc(F)cc1 (stereo not drawn) [Example 6, 1-(4-fluorophenyl)-N-(1-hydroxy-3-methyl-1,3-dihydrobenzo[c][1,2]oxaborol-6-yl)-5-methyl-1H-1,2,3-triazole-4-carboxamide]
IC50 [1]: 600 to 1000 nM
IC50 [2]: ≤ 1000 nM

O=C(Nc1ccc2c(c1)B(O)OC2)c1nnn(-c2ccc(F)cc2)c1C(F)(F)F [Example 70, 1-(4-Fluorophenyl)-N-(1-hydroxy-1,3-dihydrobenzo[c][1,2]oxaborol-6-yl)-5-(trifluoromethyl)-1H-1,2,3-triazole-4-carboxamide]
IC50 [2]: ≤ 1000 nM

O=C(Nc1ccc2c(c1)B(O)OC21CCC1)c1cn(-c2ccccc2)nn1 [Example 3, N-(1-hydroxy-1H-spiro[benzo[c][1,2]oxaborole-3,1′-cyclobutan]-6-yl)-1-phenyl-1H-1,2,3-triazole-4-carboxamide]
IC50 [1]: 1100 to 10000 nM
IC50 [2]: ≤ 1000 nM

O=C(Nc1ccc2c(c1)B(O)OC2)c1nnn(-c2cccnc2)c1C(F)(F)F [Example 71, N-(1-hydroxy-1,3-dihydrobenzo[c][1,2]oxaborol-6-yl)-1-(pyridin-3-yl)-5-(trifluoromethyl)-1H-1,2,3-triazole-4-carboxamide]
IC50 [2]: ≤ 1000 nM

O=C(Nc1ccc2c(c1)B(O)OC2)c1nnn(-c2cccc(F)c2)c1C(F)(F)F [Example 69, 1-(3-Fluorophenyl)-N-(1-hydroxy-1,3-dihydrobenzo[c][1,2]oxaborol-6-yl)-5-(trifluoromethyl)-1H-1,2,3-triazole-4-carboxamide]
IC50 [2]: ≤ 1000 nM

Cc1c(C(=O)Nc2ccc3c(c2)B(O)OC3)nnn1-c1ccccc1 [Example 89, A-(1-hydroxy-1,3-dihydrobenzo[c][1,2]oxaborol-6-yl)-5-methyl-1-phenyl-1H-1,2,3-triazole-4-carboxamide]
IC50 [2]: ≤ 1000 nM

Cc1ccc(-n2nnc(C(=O)Nc3ccc4c(c3)B(O)OC43CCC3)c2C)cc1 [Example 16, N-(1-hydroxy-1H-spiro[benzo[c][1,2]oxaborole-3,1′-cyclobutan]-6-yl)-5-methyl-1-(p-tolyl)-1H-1,2,3-triazole-4-carboxamide]
IC50 [1]: 1100 to 10000 nM
IC50 [2]: 10000 to 50000 nM

O=C(Nc1ccc2c(c1)B(O)OC2)c1nnn(-c2ccccc2F)c1C(F)(F)F [Example 67, 1-(2-Fluorophenyl)-N-(1-hydroxy-1,3-dihydrobenzo[c][1,2]oxaborol-6-yl)-5-(trifluoromethyl)-1H-1,2,3-triazole-4-carboxamide]
IC50 [2]: ≤ 1000 nM

COc1ccc(-n2cc(C(=O)Nc3ccc4c(c3)B(O)OC4)nn2)cc1 [Example 21, N-(1-hydroxy-1,3-dihydrobenzo[c][1,2]oxaborol-6-yl)-1-(4-methoxyphenyl)-1H-1,2,3-triazole-4-carboxamide]
IC50 [1]: < 600 nM
IC50 [2]: ≤ 1000 nM

Cc1ccc(-n2nnc(C(=O)Nc3ccc4c(c3)B(O)OC4)c2C)cc1 [Example 11, N-(1-hydroxy-1,3-dihydrobenzo[c][1,2]oxaborol-6-yl)-5-methyl-1-(p-tolyl)-1H-1,2,3-triazole-4-carboxamide]
IC50 [1]: 1100 to 10000 nM
IC50 [2]: 1100 to 9900 nM

CC1OB(O)c2cc(NC(=O)c3cn(-c4ccccc4)nn3)ccc21 (stereo not drawn) [Example 2]
IC50 [1]: < 600 nM
IC50 [2]: ≤ 1000 nM

COc1ccc(-n2nnc(C(=O)Nc3ccc4c(c3)B(O)OC43CCC3)c2C)cc1 [Example 20, N-(1-hydroxy-1H-spiro[benzo[c][1,2]oxaborole-3,1′-cyclobutan]-6-yl)-1-(4-methoxyphenyl)-5-methyl-1H-1,2,3-triazole-4-carboxamide]
IC50 [1]: 1100 to 10000 nM
IC50 [2]: 10000 to 50000 nM

Cc1ccc(-n2cc(C(=O)Nc3ccc4c(c3)B(O)OC43CCC3)nn2)cc1 [Example 15]
IC50 [1]: 1100 to 10000 nM
IC50 [2]: 10000 to 50000 nM

Cc1c(C(=O)Nc2ccc3c(c2)B(O)OC3)nnn1-c1ccccn1 [Example 84, N-(1-hydroxy-1,3-dihydrobenzo[c][1,2]oxaborol-6-yl)-5-methyl-1-(pyridin-2-yl)-1H-1,2,3-triazole-4-carboxamide]
IC50 [1]: 600 to 1000 nM
IC50 [2]: 1100 to 9900 nM

COc1ccc(-n2nnc(C(=O)Nc3ccc4c(c3)B(O)OC4)c2C)cc1 [Example 91, N-(1-hydroxy-1,3-dihydrobenzo[c][1,2]oxaborol-6-yl)-1-(4-methoxyphenyl)-5-methyl-1H-1,2,3-triazole-4-carboxamide]
IC50 [2]: 1100 to 9900 nM

Cc1c(C(=O)Nc2ccc3c(c2)B(O)OC32CCC2)nnn1-c1cccnc1 [Example 17, N-(1-hydroxy-1H-spiro[benzo[c][1,2]oxaborole-3,1′-cyclobutan]-6-yl)-5-methyl-1-(pyridin-3-yl)-1H-1,2,3-triazole-4-carboxamide]
IC50 [1]: 1100 to 10000 nM
IC50 [2]: 10000 to 50000 nM

Cc1c(C(=O)Nc2ccc3c(c2)B(O)OC32CCC2)nnn1-c1ccccc1 [Example 4, N-(1-hydroxy-1H-spiro[benzo[c][1,2]oxaborole-3,1′-cyclobutan]-6-yl)-5-methyl-1-phenyl-1H-1,2,3-triazole-4-carboxamide]
IC50 [1]: 600 to 1000 nM
IC50 [2]: ≤ 1000 nM

Cc1c(C(=O)Nc2ccc3c(c2)B(O)OC32CCC2)nnn1-c1ccc(F)cc1 [Example 9, 1-(4-fluorophenyl)-N-(1-hydroxy-1H-spiro[benzo[c][1,2]oxaborole-3,1′-cyclobutan]-6-yl)-5-methyl-1H-1,2,3-triazole-4-carboxamide]
IC50 [1]: 1100 to 10000 nM
IC50 [2]: 10000 to 50000 nM

Cc1ccc(-n2nnc(C(=O)Nc3ccc4c(c3)B(O)OC4C)c2C)cc1 (stereo not drawn) [Example 13, N-(1-hydroxy-3-methyl-1,3-dihydrobenzo[c][1,2]oxaborol-6-yl)-5-methyl-1-(p-tolyl)-1H-1,2,3-triazole-4-carboxamide]
IC50 [1]: 600 to 1000 nM
IC50 [2]: 1100 to 9900 nM

COc1ccc(-n2nnc(C(=O)Nc3ccc4c(c3)B(O)OC4C)c2C)cc1 (stereo not drawn) [Example 19, N-(1-hydroxy-3-methyl-1,3-dihydrobenzo[c][1,2]oxaborol-6-yl)-1-(4-methoxyphenyl)-5-methyl-1H-1,2,3-triazole-4-carboxamide]
IC50 [1]: 600 to 1000 nM
IC50 [2]: ≤ 1000 nM

Cc1c(C(=O)Nc2ccc3c(c2)B(O)OC3C)nnn1-c1cccnc1 (stereo not drawn) [Example 14]
IC50 [1]: 1100 to 10000 nM
IC50 [2]: 1100 to 9900 nM

Cc1c(C(=O)Nc2ccc3c(c2)B(O)OC3)nnn1-c1cccnc1 [Example 93, N-(1-hydroxy-1,3-dihydrobenzo[c][1,2]oxaborol-6-yl)-5-methyl-1-(pyridin-3-yl)-1H-1,2,3-triazole-4-carboxamide]
IC50 [1]: 1100 to 10000 nM
IC50 [2]: 10000 to 50000 nM

Cc1ccc(-n2cc(C(=O)Nc3ccc4c(c3)B(O)OC4)nn2)cc1 [Example 10, N-(1-hydroxy-1,3-dihydrobenzo[c][1,2]oxaborol-6-yl)-1-(p-tolyl)-1H-1,2,3-triazole-4-carboxamide]
IC50 [1]: < 600 nM
IC50 [2]: ≤ 1000 nM
